Test results: US20220048915A1 (SHANGHAI PHARMACEUTICALS HOLDING CO., LTD., priority 2018, published 2022)

What was measured:
p38α = p38α (Homo sapiens, UniProt Q16539); test: In vitro inhibition of p38 kinase (LANCE Ultra TR-FRET); format: biochemical
p38β = p38β (Homo sapiens, UniProt Q15759); test: as above; format: biochemical
p38γ = biological target: T1, p38γ (Homo sapiens, UniProt P53778); test: as above; format: biochemical; settings: read-out: Kinase in vitro IC50(nM) p38γ
T1 sequence (P53778 1-367): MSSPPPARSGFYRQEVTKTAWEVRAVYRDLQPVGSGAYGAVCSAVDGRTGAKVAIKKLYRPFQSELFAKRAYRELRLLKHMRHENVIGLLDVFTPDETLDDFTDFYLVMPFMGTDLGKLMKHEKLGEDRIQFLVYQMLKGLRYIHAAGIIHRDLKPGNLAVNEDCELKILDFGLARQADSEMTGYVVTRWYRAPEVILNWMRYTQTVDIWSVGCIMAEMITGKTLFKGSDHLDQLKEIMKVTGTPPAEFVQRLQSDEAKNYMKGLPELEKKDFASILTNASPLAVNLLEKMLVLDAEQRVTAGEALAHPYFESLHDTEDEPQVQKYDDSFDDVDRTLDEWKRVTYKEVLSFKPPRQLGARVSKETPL

BV-2 cells = test: Inhibition of inflammation in LPS-stimulated BV-2 cells (ELISA of inflammatory factors); format: cell-based; settings: Mus musculus, 100 ng/mL LPS 4 hours
Method: Normal cultured 8th passage BV-2 cells were taken, and inoculated separately in 96-well plates at a certain cell density. The cell culture plates were cultured at 37° C. and 5% CO2 for 24 hours.
After inoculating the plate for 24 hours, the cell culture medium was removed, and then 100 μL of a 4-fold gradient dilution compound starting from 10,000 nM prepared in DMEM+10% FBS, where High control and Low control contained 0.1% DMSO without compound. With 100 μL per well, the cell culture plate was cultured at 37° C. with 5% CO2 for one hour.
The compound-containing cultures were removed. 100 ng/mL of LPS was prepared with DMEM+10% FBS culture medium, and then the compound was diluted in a 4-fold gradient from 10,000 nM with LPS-containing culture medium. In low control, the compound was replaced with 0.1% DMSO. In High control, 0.1% DMSO was prepared with culture medium without LPS. 100 μL per well, and the cell culture plates were cultured at 37° C. with 5% CO2 for 4 hours.
After 4 hours of LPS stimulation, 110 μL of the culture solution was aspirated, and centrifuged at 2000 rpm for 2 minutes. A further 90 μl of supernatant was aspirated and immediately put into −20° C. for freezing.
ELISA kits were used to detect the expression of inflammatory factors such as IL-10, TNFα, etc. The OD450 signal values were measured by microplate reader. The in vitro inhibitory activity of the compounds was calculated according to the following formula: Inhibition rate: Inhibition rate (%)=(signal value of control−signal value of administration)/(high signal value of control−low signal value of control)×100%. And according to the inhibition rate of each concentration, Graphpad Prism 5.0 was used to curve fit the […] signal values at each concentration and calculate the corresponding IC50, which is shown in Table 1.

[1] = Pharmacokinetic properties in rats; format: in vivo, SD rats
Method: Ten male SD rats, weighing 180-220 g (provided by Shanghai Xipuerbikai Laboratory Animal Co., Ltd, Certificate No.: 20130016008116). The rats were fasted for feed for 12-16 hours before the experiment but water was allowed.
Blood samples were collected from the fundus vein of rats before and at 2, 5, 15, 30, 60, 90, 120, 240, 360, 480, 600 and 1440 minutes after administration, respectively.
Blood samples were collected from the fundus vein of rats before and at 5, 15, 30, 60, 90, 120, 240, 360, 480, 600, 1440 minutes after administration respectively.
Blood samples were centrifuged at 8000 rpm for 5 minutes, and supernatant plasma was taken. To 50 μL of plasma samples was added 300 μL of acetonitrile containing internal standard (propranolol, 25 ng/mL) to precipitate the protein. After vortexing for 10 minutes and centrifuging at 6000 g and 4° C. for 10 minutes, the supernatant was taken and placed in a 96-well plate for determination of drug concentration in plasma by UPLC/MS-MS.

[2] = Drug concentration in mice brain; format: in vivo, ICR mice; settings: FIG. 1
Method: Blood samples were collected from the fundus vein of mice before and at 5, 15, 30, 60, 90, 120, 240, 480 and 1440 minutes of administration, respectively.
2-3 time points were taken for each mouse. The mice were sacrificed at 5, 15, 30, 60 and 1440 minutes after the administration (3 mice per time point), and the brains were taken, rinsed with saline, dried on filter paper and weighed.
Brain tissues were weighed, homogenized in saline (1:4, w/v). 50 μL of homogenized samples were taken, added with 300 μL of acetonitrile containing internal standard (propranolol, 25 ng/mL) to precipitate protein. After vortexing for 10 minutes and centrifuging at 6000 g for 10 minutes, 80 μL of supernatant was taken and placed in a 96-well plate for determination of drug concentration in tissue by UPLC/MS-MS, as shown in Table 2.

[3] = male, SD, plasma, rat, po 6 mg/kg

p38β, sequence (Q15759 whole entry): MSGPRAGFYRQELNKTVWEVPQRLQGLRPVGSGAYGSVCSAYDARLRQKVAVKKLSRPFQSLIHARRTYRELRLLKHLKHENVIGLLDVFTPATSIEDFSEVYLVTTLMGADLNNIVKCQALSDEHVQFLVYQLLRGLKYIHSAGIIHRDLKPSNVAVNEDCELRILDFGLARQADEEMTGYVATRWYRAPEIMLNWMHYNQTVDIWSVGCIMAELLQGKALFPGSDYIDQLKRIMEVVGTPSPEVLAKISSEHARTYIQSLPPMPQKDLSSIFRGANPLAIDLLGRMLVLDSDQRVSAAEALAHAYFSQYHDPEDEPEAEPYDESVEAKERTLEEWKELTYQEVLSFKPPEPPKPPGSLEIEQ
p38α, sequence (Q16539 whole entry): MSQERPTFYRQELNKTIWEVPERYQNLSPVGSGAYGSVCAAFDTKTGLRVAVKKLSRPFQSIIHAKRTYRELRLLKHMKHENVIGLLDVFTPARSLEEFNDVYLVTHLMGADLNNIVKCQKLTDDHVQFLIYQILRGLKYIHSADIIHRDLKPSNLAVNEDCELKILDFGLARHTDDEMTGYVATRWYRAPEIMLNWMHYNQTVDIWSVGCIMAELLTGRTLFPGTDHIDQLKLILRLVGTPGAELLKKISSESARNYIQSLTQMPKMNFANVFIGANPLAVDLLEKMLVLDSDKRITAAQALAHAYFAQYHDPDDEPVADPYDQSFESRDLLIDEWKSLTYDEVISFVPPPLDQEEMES

O=c1ncn2nc(Oc3ccc(F)cc3F)ccc2c1-c1c(Cl)cccc1Cl [Compound I-4, 5-(2,6-dichlorophenyl)-2-(2,4-difluorophenoxy)-6H-pyrimido[1,6-b]pyridazin-6-one]
inhibitory activity against p38α kinase compared to the positive compound (p38α): superior inhibitory activity
IC50 (p38α; read-out: Kinase in vitro IC50(nM) p38α): 9.87 nM
inhibitory activity against p38β kinase compared to the positive compound (p38β): superior inhibitory activity
IC50 (p38β; read-out: Kinase in vitro IC50(nM) p38β): 47.4 nM
IC50 (p38γ): > 3330 nM
Emax (BV-2 cells; read-out: BV-2 Max Inh. (%)): 100%
IC50 (BV-2 cells; read-out: BV-2 Rf IC50): 6.47 nM
clearance ([1]; male, SD, plasma, rat, iv 3 mg/kg): 8.33 mL/min/kg
Vd ([1]; male, SD, plasma, rat, iv 3 mg/kg, read-out: Vss (iv)): 2.1 L/kg
Cmax [1, 3]: 994 ng/mL
MRT [1, 3]: 7.5 h
Tmax [1, 3]: 4.5 h
Thalf (iv) ([1]; rat, iv 3 mg/kg): 3.4 h
BA ([1]; rat, po 6 mg/kg vs iv 3 mg/kg): 68.9%
AUClast (po) ([1]; rat, po 6 mg/kg, 5-1440 minutes): 8857.1 (h)*(ng/mL)
clearance rate as fraction of that of the positive compound ([1]; rats): 1/3
absorption compared with the positive compound VX-745 at the same dose ([1]; rats, 6 mg/kg): significantly higher
AUC relative to that of the positive compound ([1]; rats, 6 mg/kg, 5-1440 minutes): 5.4 times
concentration in mouse brain relative to the positive compound ([2]; 1 h time point): more than one time
drug concentration in mice brain compared with the positive compound ([2]; different time points): significantly higher
